This is an account of results in patent publication US12054487B2, “Muscarinic acetylcholine M1 receptor antagonists” (Contineum Therapeutics, Inc., priority 2018, dated 2024).

Holding throughout (type): cell-based
Assay [1] concerns the target M3 (Homo sapiens, UniProt P20309). Kind of assay: In vitro functional assay of muscarinic acetylcholine receptor activity, M3. The conditions noted are these: antagonist activity; M3 method not separately described. How it is done:
[The procedure below names another target; the source lists this target under the same test.] (§1) CHO-K1 cells stably expressing human M1 receptor with Aequorin (Perkin Elmer) were grown in F12 media, 10% FBS with 0.4 mg/mL geneticin and […]. Cells were grown to confluence and frozen down to be assayed at a later date. On the day of the experiment cells were thawed in a 37° C. water bath, resuspended in DMEM/HAM's F12 with HEPES (Invitrogen)+0.1% protease-free BSA (assay buffer), and spun down to remove freezing media. After centrifugation, supernatant was removed and 12 mL of assay buffer was added. Coelenterazine h (Promega) was added to the cells at a final concentration of 5 uM and incubated for 4 hours at room temperature in the dark. Compound master plate-96 deep well (Corning) were formatted in a 8-point DRC in assay buffer with 0.2% DMSO at a starting concentration of 60 uM (2×). After 4 hours of incubation, cells were plated at a concentration of 5×10^5 cells/well in 96 well white-walled, tissue culture-treated, clear-bottom plates (VWR). Compounds were added to the daughter plate, and cells plus compound were incubated at room temperature for 30 minutes in the dark.
(§2) Calcium flux was measured using the FlexStation 3 (Molecular Devices). To measure the antagonist dose-response, the EC80 of Acetylcholine was injected to the daughter plate using the automated compound transfer function of the Flex Station, and the increase in luminescence was measured over time. Antagonist activity was analyzed as a concentration dependent decrease in the EC80 acetylcholine response. Dose response curves were generated using Prism (GraphPad Software). The IC50 of the compounds was calculated from the dose response curve.

Assay [2] deals with T1, human M1 receptor (Homo sapiens, UniProt P11229).
T1 construct: host or cells: CHO-K1
T1 sequence (P11229 1-460): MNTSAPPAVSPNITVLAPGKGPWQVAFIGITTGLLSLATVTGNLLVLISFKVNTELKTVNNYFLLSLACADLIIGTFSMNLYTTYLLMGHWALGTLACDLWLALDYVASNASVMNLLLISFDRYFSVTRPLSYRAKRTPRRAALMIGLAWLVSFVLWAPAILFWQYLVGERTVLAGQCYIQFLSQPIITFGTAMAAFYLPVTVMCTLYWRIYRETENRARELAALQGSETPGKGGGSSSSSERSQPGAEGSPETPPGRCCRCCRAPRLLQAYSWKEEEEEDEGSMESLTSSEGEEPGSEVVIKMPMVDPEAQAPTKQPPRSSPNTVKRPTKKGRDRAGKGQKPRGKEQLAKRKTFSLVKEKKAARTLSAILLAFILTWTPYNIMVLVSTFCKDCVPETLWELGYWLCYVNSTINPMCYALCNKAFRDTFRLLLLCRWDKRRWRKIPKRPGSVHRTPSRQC
Kind of assay: In vitro functional assay of muscarinic acetylcholine receptor activity (aequorin calcium flux, antagonist mode vs EC80 acetylcholine), M1. The conditions noted are these: CHO-K1 cells stably expressing human M1 receptor with Aequorin; decrease in EC80 acetylcholine response. How it is done:
as §1, §2
Background: Calcium assays in cells follow changes in intracellular calcium, usually with a dye or a luminescent sensor.

For assay [3], the target named is T2, M2 (Homo sapiens, UniProt P08172).
T2 sequence (P08172 1-466): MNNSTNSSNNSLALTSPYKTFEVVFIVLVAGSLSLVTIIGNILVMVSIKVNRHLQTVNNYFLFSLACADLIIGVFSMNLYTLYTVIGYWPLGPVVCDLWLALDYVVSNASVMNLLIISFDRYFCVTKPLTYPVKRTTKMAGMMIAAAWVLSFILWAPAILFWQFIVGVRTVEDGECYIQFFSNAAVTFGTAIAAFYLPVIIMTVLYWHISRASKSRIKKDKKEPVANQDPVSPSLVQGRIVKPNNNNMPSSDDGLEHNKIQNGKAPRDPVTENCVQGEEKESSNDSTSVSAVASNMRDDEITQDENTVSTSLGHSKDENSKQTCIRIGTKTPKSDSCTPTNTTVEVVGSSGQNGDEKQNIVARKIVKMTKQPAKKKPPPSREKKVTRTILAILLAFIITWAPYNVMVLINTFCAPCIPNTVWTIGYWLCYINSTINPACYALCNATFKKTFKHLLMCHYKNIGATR
Nature of the assay: In vitro functional assay of muscarinic acetylcholine receptor activity, M2. The conditions noted are these: antagonist activity; M2 method not separately described. As to the method: [The procedure below names another target; the source lists this target under the same test.] as §1, §2

M3, sequence (P20309 whole entry): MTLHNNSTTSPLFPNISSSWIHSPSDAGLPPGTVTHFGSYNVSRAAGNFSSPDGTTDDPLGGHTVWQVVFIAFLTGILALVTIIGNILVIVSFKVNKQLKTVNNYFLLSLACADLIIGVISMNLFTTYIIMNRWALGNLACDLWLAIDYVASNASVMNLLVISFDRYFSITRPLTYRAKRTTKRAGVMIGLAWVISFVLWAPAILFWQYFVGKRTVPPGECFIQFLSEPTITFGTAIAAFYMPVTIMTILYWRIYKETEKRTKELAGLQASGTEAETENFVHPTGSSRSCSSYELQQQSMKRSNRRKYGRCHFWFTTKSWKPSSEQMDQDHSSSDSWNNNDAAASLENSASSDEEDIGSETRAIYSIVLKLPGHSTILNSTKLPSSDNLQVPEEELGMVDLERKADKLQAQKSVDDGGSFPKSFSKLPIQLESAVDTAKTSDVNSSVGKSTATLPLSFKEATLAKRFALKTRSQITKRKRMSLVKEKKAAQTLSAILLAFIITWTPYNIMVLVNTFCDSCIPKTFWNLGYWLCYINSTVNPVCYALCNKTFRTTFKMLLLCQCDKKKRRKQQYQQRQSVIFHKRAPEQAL

What is called IC50 is the concentration needed to halve the response being measured. In the case of `O=C1C(CCCc2cccc3ncnn23)C[C@H]2CN(c3ccc(C(F)F)cn3)CCN12` (mixture of isomers) [Example 46, (8aS)-7-(3-([1,2,4]triazolo[1,5-a]pyridin-5-yl)propyl)-2-(5-(difluoromethyl)pyridin-2-yl)hexahydropyrrolo[1,2-a]pyrazin-6(2H)-one], the 50% inhibitory concentration (IC50) in assay [1] is 1000 to 10000 nM; in assay [2], under 100 nM; in assay [3], 1000 to 10000 nM.
With `N#Cc1ccc(N2CCN3C(=O)[C@@H](CCCc4cccc5ncccc45)C[C@H]3C2)nc1` [Example 59, 6-((7S,8aS)-6-oxo-7-(3-(quinolin-5-yl)propyl)hexahydropyrrolo[1,2-a]pyrazin-2(1H)-yl)nicotinonitrile], the IC50 is 1000 to 10000 nM in assay [1], under 100 nM in assay [2] and 100 to 1000 nM in assay [3].
In the case of `N#Cc1ccc(N2CCN3C(=O)[C@@H](CCCc4ccc5c(c4)CCO5)C[C@H]3C2)nc1` [Example 20, 6-((7S,8aS)-7-(3-(2,3-dihydrobenzofuran-5-yl)propyl)-6-oxohexahydropyrrolo[1,2-a]pyrazin-2(1H)-yl)nicotinonitrile], the results for the concentration for half-maximal inhibition (IC50) in assay [1], in assay [2] and in assay [3] were 1000 to 10000 nM, 100 to 1000 nM and 1000 to 10000 nM, respectively.
As for `COc1cc(N2CCN3C(=O)[C@@H](CCCc4cccc5ncnn45)C[C@H]3C2)ccn1` [Example 37, (7S,8aS)-2-(2-methoxypyridin-4-yl)-7-(3-{[1,2,4]triazolo[1,5-a]pyridin-5-yl}propyl)-octahydropyrrolo[1,2-a]pyrazin-6-one], the IC50 in assay [1] was 1000 to 10000 nM; in assay [2], under 100 nM; in assay [3], 1000 to 10000 nM.
`O=C1[C@H](CCCc2cccc3ncsc23)C[C@@H]2CN(c3ccncc3F)CCN12` [Example 8, (7R,8aR)-7-(3-(benzo[d]thiazol-7-yl)propyl)-2-(3-fluoropyridin-4-yl)hexahydropyrrolo[1,2-a]pyrazin-6(2H)-one]: the IC50 in assay [1], in assay [2] and in assay [3] was over 10000 nM each time.
Regarding `N#Cc1ccc(N2CCN3C(=O)[C@@H](CCCc4cccc(F)c4C4CC4)C[C@H]3C2)nc1` [Example 25, 6-((7S,8aS)-7-(3-(2-cyclopropyl-3-fluorophenyl)propyl)-6-oxohexahydropyrrolo[1,2-a]pyrazin-2(1H)-yl)nicotinonitrile], the IC50 in assay [1] was 100 to 1000 nM; in assay [2] it was under 100 nM; in assay [3], 1000 to 10000 nM.
As for `Cc1ccc(N2CCN3C(=O)[C@@H](CCCc4cccc5ncnn45)C[C@H]3C2)nc1` [Example 40, (7S,8aS)-7-(3-([1,2,4]triazolo[1,5-a]pyridin-5-yl)propyl)-2-(5-methylpyridin-2-yl)hexahydropyrrolo[1,2-a]pyrazin-6(2H)-one], the concentration for half-maximal inhibition (IC50) was over 10000 nM in assay [1], under 100 nM in assay [2] and over 10000 nM in assay [3].
As for `O=C1C(CCCc2cccc3ncnn23)C[C@H]2CN(c3ccc(F)cn3)CCN12` (mixture of isomers) [Example 41, (7S,8aS)-7-(3-([1,2,4]triazolo[1,5-a]pyridin-5-yl)propyl)-2-(5-fluoropyridin-2-yl)hexahydropyrrolo[1,2-a]pyrazin-6(2H)-one], the figures for the IC50 in assay [1], in assay [2] and in assay [3] were 1000 to 10000 nM, under 100 nM and 1000 to 10000 nM, respectively.
As for `O=C1[C@@H](CCCc2cccn3ncnc23)C[C@H]2CN(c3ncc(Cl)cn3)CCN12` [Example 64, (7S,8aS)-7-(3-([1,2,4]triazolo[1,5-a]pyridin-8-yl)propyl)-2-(5-chloropyrimidin-2-yl)hexahydropyrrolo[1,2-a]pyrazin-6(2H)-one], the IC50 in assay [1] was 1000 to 10000 nM; in assay [2], under 100 nM; in assay [3] it was 100 to 1000 nM.
For the compound `COc1ccc(N2CCN3C(=O)C(CCCc4cccn5ncnc45)C[C@H]3C2)nc1` (mixture of isomers) [Example 72, (7S,8aS)-7-(3-([1,2,4]triazolo[1,5-a]pyridin-8-yl)propyl)-2-(5-methoxypyridin-2-yl)hexahydropyrrolo[1,2-a]pyrazin-6(2H)-one], the IC50 was 1000 to 10000 nM in assay [1], under 100 nM in assay [2] and 1000 to 10000 nM in assay [3].
On to `Cc1nc2cccc(CCC[C@H]3C[C@H]4CN(c5ccc(C#N)cn5)CCN4C3=O)c2o1` [Example 21, 6-((7S,8aS)-7-(3-(2-methylbenzo[d]oxazol-7-yl)propyl)-6-oxohexahydropyrrolo[1,2-a]pyrazin-2(1H)-yl)nicotinonitrile], for which the half-maximal inhibitory concentration (IC50) in assay [1] is 1000 to 10000 nM; in assay [2] it was under 100 nM; in assay [3] it was 1000 to 10000 nM.
Take `Cc1ncc(N2CCN3C(=O)C(CCCc4cccc5ncnn45)C[C@H]3C2)cc1F` (mixture of isomers) [Example 43, (7S,8aS)-7-(3-([1,2,4]triazolo[1,5-a]pyridin-5-yl)propyl)-2-(5-fluoro-6-methylpyridin-3-yl)hexahydropyrrolo[1,2-a]pyrazin-6(2H)-one]: the half-maximal inhibitory concentration (IC50) in assay [1], in assay [2] and in assay [3] was 1000 to 10000 nM throughout.
On to `Cc1cnc(N2CCN3C(=O)[C@@H](CCCc4cccn5ncnc45)C[C@H]3C2)nc1` [Example 65, (7S,8aS)-7-(3-([1,2,4]triazolo[1,5-a]pyridin-8-yl)propyl)-2-(5-methylpyrimidin-2-yl)hexahydropyrrolo[1,2-a]pyrazin-6(2H)-one], for which the figures for the IC50 in assay [1], in assay [2] and in assay [3] were over 10000 nM, 100 to 1000 nM and 1000 to 10000 nM, respectively.
With `O=C1[C@@H](CCCc2cccc3ncnn23)C[C@H]2CN(c3ccnc(C(F)(F)F)c3)CCN12` [Example 33, (7S,8aS)-7-(3-([1,2,4]triazolo[1,5-a]pyridin-5-yl)propyl)-2-(2-(trifluoromethyl)pyridin-4-yl)hexahydropyrrolo[1,2-a]pyrazin-6(2H)-one], the half-inhibitory concentration (IC50) in assay [1] fell in the range of 1000 to 10000 nM; in assay [2] it was 100 to 1000 nM; in assay [3] it was 1000 to 10000 nM.
Regarding `N#Cc1ccc(N2CCN3C(=O)[C@@H](CCCc4cccc5ncnn45)C[C@H]3C2)nc1` [Example 4, 6-((7S,8aS)-7-(3-([1,2,4]triazolo [1,5-a]pyridin-5-yl)propyl)-6-oxohexahydropyrrolo [1,2-a]pyrazin-2(1H)-yl)nicotinonitrile], the half-inhibitory concentration (IC50) in assay [1] was 100 to 1000 nM; in assay [2] it was under 100 nM; in assay [3], 100 to 1000 nM.
As to `N#Cc1ccc(N2CCN3C(=O)[C@@H](CCCc4cccc5ncoc45)C[C@H]3C2)nc1` [Example 22, 6-((7S,8aS)-7-(3-(benzo[d]oxazol-7-yl)propyl)-6-oxohexahydropyrrolo[1,2-a]pyrazin-2(1H)-yl)nicotinonitrile], the 50% inhibitory concentration (IC50) in assay [1] is 1000 to 10000 nM; in assay [2], under 100 nM; in assay [3] it was 100 to 1000 nM.
For `O=C1[C@@H](CCCc2cccc3ncsc23)C[C@H]2CN(c3ccccn3)CCN12` [Example 27, (7S,8aS)-7-(3-(benzo[d]thiazol-7-yl)propyl)-2-(pyridin-2-yl)hexahydropyrrolo[1,2-a]pyrazin-6(2H)-one] the same measures were 1000 to 10000 nM, 100 to 1000 nM and over 10000 nM.
`N#Cc1ccc(N2CCN3C(=O)[C@@H](CCCc4cccn5ncnc45)C[C@H]3C2)nc1` [Example 68, 6-((7S,8aS)-7-(3-([1,2,4]triazolo[1,5-a]pyridin-8-yl)propyl)-6-oxohexahydropyrrolo[1,2-a]pyrazin-2(1H)-yl)nicotinonitrile]: the figures for the IC50 in assay [1], in assay [2] and in assay [3] were under 100 nM, under 100 nM and 100 to 1000 nM, respectively.
